From the NIST ThermoML archive (doi:10.1021/acs.jced.5b00562)

Conditions: for specific volume: Gas, isochoric method; for mass density: Liquid, Vibrating tube method

F/C=C(\F)C(F)(F)F [(Z)-1,2,3,3,3-pentafluoro-1-propene]
Conditions	mass density [kg/m3]	specific volume [m3/kg]
263.15 K, 135.2 kPa	–	0.115
268.15 K, 138.3 kPa	–	0.115
273.14 K, 141.3 kPa	–	0.116
273.15 K, 202.4 kPa	–	0.079
278.15 K, 144.3 kPa	–	0.116
278.15 K, 207 kPa	–	0.079
282.83 K, 301.1 kPa	–	0.054
283.14 K, 12501 kPa	1378.7	–
283.15 K, 211.5 kPa	–	0.079
283.15 K, 510 kPa	1329.6	–
283.15 K, 604 kPa	1330.1	–
283.15 K, 1003 kPa	1332	–
283.15 K, 1499 kPa	1334.5	–
283.15 K, 1997 kPa	1336.8	–
283.15 K, 2500 kPa	1339.1	–
283.15 K, 5000 kPa	1350.2	–
283.15 K, 7499 kPa	1360.3	–
283.15 K, 9998 kPa	1369.8	–
283.15 K, 15001 kPa	1387	–
283.15 K, 17501 kPa	1395	–
283.15 K, 20001 kPa	1402.5	–
283.15 K, 22497 kPa	1409.9	–
283.15 K, 25000 kPa	1417	–
283.16 K, 147.3 kPa	–	0.116
283.16 K, 27503 kPa	1423.9	–
283.16 K, 29999 kPa	1430.3	–
283.16 K, 32498 kPa	1436.2	–
283.16 K, 35004 kPa	1442.4	–
287.91 K, 307.5 kPa	–	0.054
288.15 K, 150.2 kPa	–	0.116
288.15 K, 215.6 kPa	–	0.079
292.78 K, 314.1 kPa	–	0.054
293.15 K, 152.7 kPa	–	0.116
293.15 K, 220 kPa	–	0.079
293.15 K, 470 kPa	1293.2	–
293.15 K, 598 kPa	1293.9	–
293.15 K, 1000 kPa	1296.2	–
293.15 K, 1500 kPa	1299.1	–
293.15 K, 2000 kPa	1301.9	–
293.15 K, 2500 kPa	1304.6	–
293.15 K, 5000 kPa	1317.4	–
293.15 K, 7500 kPa	1329	–
293.15 K, 10001 kPa	1339.8	–
293.15 K, 12500 kPa	1349.7	–
293.15 K, 14999 kPa	1359	–
293.15 K, 17500 kPa	1367.8	–
293.15 K, 20000 kPa	1376	–
293.15 K, 22500 kPa	1383.9	–
293.15 K, 25000 kPa	1391.4	–
293.15 K, 27499 kPa	1398.5	–
293.15 K, 30000 kPa	1405.4	–
293.15 K, 32500 kPa	1412	–
293.15 K, 34999 kPa	1418.5	–
297.14 K, 418.9 kPa	–	0.04
298.15 K, 155.7 kPa	–	0.116
298.15 K, 224.3 kPa	–	0.079
298.15 K, 498.5 kPa	–	0.032
298.47 K, 320.7 kPa	–	0.054
303.14 K, 327 kPa	–	0.054
303.14 K, 510.2 kPa	–	0.032
303.15 K, 158.7 kPa	–	0.116
303.15 K, 228.2 kPa	–	0.079
303.15 K, 430 kPa	–	0.04
303.15 K, 700 kPa	1255.3	–
303.15 K, 1000 kPa	1257.4	–
303.15 K, 1500 kPa	1260.9	–
303.15 K, 2000 kPa	1264.3	–
303.15 K, 7500 kPa	1296.6	–
303.15 K, 9999 kPa	1308.8	–
303.15 K, 12500 kPa	1320.1	–
303.15 K, 20000 kPa	1349.2	–
303.15 K, 22501 kPa	1357.8	–
303.15 K, 24999 kPa	1366	–
303.15 K, 27500 kPa	1374.4	–
303.16 K, 2499 kPa	1267.8	–
303.16 K, 5000 kPa	1283.2	–
303.16 K, 14996 kPa	1330.5	–
303.16 K, 17500 kPa	1340.2	–
303.16 K, 30000 kPa	1381.8	–
303.16 K, 32500 kPa	1388.8	–
303.16 K, 35000 kPa	1395.6	–
308.12 K, 522.1 kPa	–	0.032
308.14 K, 161.7 kPa	–	0.116
308.14 K, 612.3 kPa	–	0.027
308.15 K, 232.8 kPa	–	0.079
308.15 K, 333.9 kPa	–	0.054
308.15 K, 439 kPa	–	0.04
312.86 K, 236.9 kPa	–	0.079
313.13 K, 533.4 kPa	–	0.032
313.14 K, 627 kPa	–	0.027
313.14 K, 7500 kPa	1262.1	–
313.14 K, 10000 kPa	1276.1	–
313.15 K, 164.2 kPa	–	0.116
313.15 K, 447.9 kPa	–	0.04
313.15 K, 1000 kPa	1216.2	–
313.15 K, 1500 kPa	1220.4	–
313.15 K, 2008 kPa	1224.6	–
313.15 K, 5000 kPa	1246.4	–
313.15 K, 12501 kPa	1288.9	–
313.15 K, 15000 kPa	1300.5	–
313.15 K, 17497 kPa	1311.3	–
313.15 K, 20000 kPa	1321.4	–
313.15 K, 22500 kPa	1330.8	–
313.15 K, 25000 kPa	1339.7	–
313.15 K, 27500 kPa	1348.1	–
313.15 K, 30001 kPa	1356.1	–
313.15 K, 32500 kPa	1363.7	–
313.15 K, 35000 kPa	1371	–
313.16 K, 340.4 kPa	–	0.054
313.16 K, 2501 kPa	1228.3	–
318.14 K, 346.9 kPa	–	0.054
318.14 K, 641.3 kPa	–	0.027
318.15 K, 166.8 kPa	–	0.116
318.15 K, 241.3 kPa	–	0.079
318.15 K, 457 kPa	–	0.04
318.23 K, 544.9 kPa	–	0.033
323.14 K, 353.4 kPa	–	0.054
323.14 K, 555.9 kPa	–	0.033
323.14 K, 655.2 kPa	–	0.027
